From patent US20120302609A1, “Pyrazolines for the Modulation of PKM2” (Dynamix Pharmaceuticals LTD., priority 2011, published 2012)

Assays:
BT-549 (breast) = assay: Cell proliferation assay (CellTiter-Glo Luminescent); format: cell-based; settings: Homo sapiens, Complete media
[1] = test system: HT-29 (Colorectal cancer cell line); assay: Cell proliferation, Assay Protocol I (CellTiter-Glo); format: cell-based; settings: Homo sapiens
Experimental: (§1) Growth inhibitory activity against the human tumor cell lines was determined using Promega's CellTiter-Glo® assay. The cell lines of interest were placed in a 96-well microculture plate (Costar® white, flat bottom #3917) in a total volume of 90 μL/well. After 24 hours of incubation in a humidified incubator at 37° C. with 5% CO2 and 95% air, 10 μL of serially diluted test compounds in growth medium were added to each well. After 96 total hours of culture in a CO2 incubator, the plated cells and CellTiter-Glo® (Promega # G7571) reagents were brought to room temperature to equilibrate for 30 minutes. 100 μL of CellTiter-Glo® reagent was added to each well. The plate was shaken for 2 minutes and then left to equilibrate for 10 minutes before reading luminescence on the Tecan GENios microplate reader.
(§2) Percent inhibition of cell growth was calculated relative to untreated control wells. All tests were performed in duplicate for each concentration level. The IC50 value for the test compounds was estimated using Prism 3.03 by curve-fitting the data.

[2] = test system: H1299 (Non-small cell lung carcinoma cell line); assay: as above; format: cell-based; settings: Homo sapiens, NCI-H1299, 96 total hours of culture
Experimental: as §1, §2

[3] = test system: SW480 (Colorectal cancer cell line); assay: as above; format: cell-based; settings: Homo sapiens
Experimental: as §1, §2

[4] = test system: A549 (Non-small cell lung carcinoma cell line); assay: as above; format: cell-based; settings: Homo sapiens
Experimental: as §1, §2

[5] = test system: HepG2 (Hepatocellular cancer cell line); assay: as above; format: cell-based; settings: Homo sapiens
Experimental: as §1, §2

PKM2, human recombinant = molecular target: T1, PKM2, human recombinant (Homo sapiens, UniProt P14618); assay: PKM2 enzymatic activity assay (Kinase-Glo Plus luminescence); format: biochemical; settings: for AC50: 0.1 nM PKM2, 0.1 mM ADP, 0.5 mM PEP, 1 hour, room temperature, read-out: AC50 group; for Emax: 1 h, maximum percent activity, luminescence without compound = 0% activity, read-out: Max activity Group;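 on Max activity Group: percent increase over no-compound signal after subtracting the no-PKM2 background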
T1 construct: purchased BPS 50295
T1 sequence (P14618 whole entry): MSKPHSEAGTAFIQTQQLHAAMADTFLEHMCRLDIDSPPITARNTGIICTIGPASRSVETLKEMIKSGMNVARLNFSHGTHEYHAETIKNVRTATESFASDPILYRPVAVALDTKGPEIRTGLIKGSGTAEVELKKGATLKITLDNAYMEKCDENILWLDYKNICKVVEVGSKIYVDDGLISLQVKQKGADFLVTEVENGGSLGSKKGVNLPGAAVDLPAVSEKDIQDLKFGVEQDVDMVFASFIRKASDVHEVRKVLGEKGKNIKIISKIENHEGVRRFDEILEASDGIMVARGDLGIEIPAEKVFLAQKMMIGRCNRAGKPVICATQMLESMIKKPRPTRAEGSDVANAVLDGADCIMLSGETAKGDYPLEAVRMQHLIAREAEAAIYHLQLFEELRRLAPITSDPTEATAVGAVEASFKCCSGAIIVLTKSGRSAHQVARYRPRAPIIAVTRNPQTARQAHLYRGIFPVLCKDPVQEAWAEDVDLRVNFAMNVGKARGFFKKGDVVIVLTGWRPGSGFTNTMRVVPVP
In short: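 Activation assay: 0.1 nM recombinant human PKM2 with 0.1 mM ADP and 0.5 mM PEP in imidazole buffer pH 7.2, 1 hour at room temperature, in duplicate; ATP produced read by Kinase-Glo Plus luminescence. % activity relative to no-compound and no-enzyme wells; AC50 as half-maximal activation from sigmoidal fit; FBP 0.5 mM positive control.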

H1299 (lung) = assay: Cell proliferation assay (CellTiter-Glo Luminescent); format: cell-based, human; settings: 96 hr
Experimental: 1. Cells were grown according to the ATCC conditions. 2. Cell feeding (passaging) was timed such that the cells were in exponential growth phase at the time of the assay.
3. On day 1, H1299 cells were counted. Cell numbers were adjusted to the desired cell concentration in Media 1: RPMI 1640 Invitrogen 11879020 (that contained no glucose or pyruvate) with 10% FBS, and 1 mM D-Glucose (4 μl of 2.5 M D-glucose G8769 was added in preparing 10 ml RPMI media with 1 mM glucose). A 200 μl of H1299 cell suspension was added to appropriate wells in the 96-well plates, and incubated at 37° C. in the CO2 cell incubator under normal growing conditions for overnight. 4. On day 2, a 100 mM stock concentration of test compounds in 100% DMSO was prepared and serially diluted with 100% DMSO to 33.33 mM, 11.11 mM, and 3.7 mM. A 1:1000 dilution was made to each concentration in media 1 (yielding 0.1% final DMSO concentration). The media was aspirated completely from the cell plate. Each 100 μl of the following solutions (100 μM, 33.33 μM, 11.11 μM, and 3.7 μM) was added to the cells. DMSO in a final concentration of 0.1%, and media without DMSO, were added to the cells and used as a negative control. Empty wells around the experimental wells were filled with PBS. The plate was sealed with parafilm to reduce evaporation. 5. The plate was incubated under normal conditions (5% CO2, and 95% air), for 96 hours at 37° C. 6. On day 6 (after 96 hr incubation), the plate was equilibrated to room temperature for approximately 30 minutes. A 100 μl of CellTiter-Glo Reagent was added in each well of the plate. Contents were mixed for 2 minutes on an orbital shaker to induce cell lysis. The plate was incubated at room temperature for 10 minutes to stabilize luminescent signal. Luminescence was recorded with Flexstation 3.
Unless noted otherwise, proliferation of control or compound treated H1299 cells was measured using CellTiter-Glo Luminescent assay following 96 hr incubation of the cells with and without test compounds. The AC50 values, shown in Table 3, were coded according to follows: A: <3 μM; B: 3-10 μM; C: 10-20 μM; or D: >20 μM.

786-O (kidney) = assay: as above; format: cell-based; settings: Homo sapiens, 786-0, 1 mM glucose, 96 hr
[6] = Homo sapiens, NCI-H1299, 1 mM glucose

SMILES | AC50 (BT-549 (breast); Assay duration: 72 hours, Readout: CellTiter Glo) [µM] | IC50 [1] [µM] | IC50 [2] [µM] | IC50 [3] [µM] | IC50 [4] [µM] | IC50 [5] [µM] | AC50 (PKM2, human recombinant) [µM] | Emax (PKM2, human recombinant) [%] | AC50 (H1299 (lung); [6]) [µM] | AC50 (BT-549 (breast); 96 hr, CellTiter-Glo) [µM] | AC50 (786-O (kidney)) [µM] | AC50 (H1299 (lung); 5 mM glucose) [µM] | AC50 (H1299 (lung); Complete media) [µM]
CCS(=O)(=O)Nc1ccc(C2=NN(C(C)=O)C(c3ccc(OC)cc3)C2)cc1 (racemic) [Compound 1A, N-(4-(1-acetyl-5-(4-methoxyphenyl)-4,5-dihydro-1H-pyrazol-3-yl)phenyl)ethanesulfonamide] | > 20 | > 100 | 40 to 100 | 40 to 100 | < 40 | 40 to 100 | ≤ 1 | 130 to 200 | 10 to 20 | – | – | – | –
COc1ccc([C@@H]2CC(c3ccc(NS(=O)(=O)c4ccc(F)cc4)cc3)=NN2C(C)=O)cc1 [Compound 13A, (S)—N-(4-(1-acetyl-5-(4-methoxyphenyl)-4,5-dihydro-1H-pyrazol-3-yl)phenyl)-4-fluorobenzenesulfonamide] | – | – | – | – | – | – | ≤ 1 | 130 to 200 | 10 to 20 | 10 to 20 | < 3 | 10 to 20 | 10 to 20
